This note sets out measurements from patent US20230085307A1, “PYRIDAZINONE COMPOUND AND HERBICIDE” (NISSAN CHEMICAL CORPORATION, priority 2019, published 2023).

In one test the test system is oval-leafed pondweed. The test can be described thus: Test Example 1: herbicidal activity, application before weed generation under submerged conditions (Table 16, symbol C). It is filed as in vivo, oval-leafed pondweed (Monochoria vaginalis). Particulars: amount of applied herbicide 320 g/ha. An outline of the steps: (§1)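 Alluvial soil was flooded to 4 cm depth, weed seeds were sown mixed and 2.5-leaf rice seedlings were transplanted. On sowing day, the compound's emulsion, diluted in water to a set dose, was applied to the water surface. Plants grew at 25–30 °C and were scored 0–5 after three weeks.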

For test [1], the system named is blackgrass. Kind of test: Test Example 5: herbicidal effect by foliage application, plastic box (Table 20, symbol J). It is filed as in vivo, blackgrass (Alopecurus myosuroides). Particulars: foliage application, 320 g/ha, three weeks after application. The procedure, abridged: (§2)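 Plants were sown into sterilized diluvial soil under about 1.5 cm cover and kept in a greenhouse at 25° C. to 30° C. Fourteen days on, foliage received an even spray of the diluted emulsion. Herbicidal or crop effect was judged three weeks afterwards.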

In a further test the test system is Chinese sprangletop. The test can be described thus: Test Example 3: herbicidal effect by foliage application, Wagner pot (Table 18, symbol D). It is filed as in vivo, chinese sprangletop (Leptochloa chinensis). Particulars: for herbicidal effect on D: Chinese sprangletop: amount of applied herbicide 320 g/ha. An outline of the steps:
(§3)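 Plants were sown in alluvial soil held under 0.1–0.5 cm standing water and grown 14 days in a greenhouse at 25–30 °C. An emulsifiable formulation, water-diluted to the set dose, was then sprayed onto the foliage, and effects were scored three weeks later using previously defined criteria.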

For another test, the system named is persian speedwell. Kind of test: Test Example 5: herbicidal effect by foliage application, plastic box (Table 20, symbol R). It is filed as in vivo, Persian speedwell (Veronica persica). Conditions: foliage application, 320 g/ha, three weeks after application. An outline of the steps:
as §2

For the next test, the system named is Italian ryegrass. The test can be described thus: Test Example 4: herbicidal effect by soil treatment (Table 19, symbol K). The test is classed as in vivo, Italian ryegrass (Lolium multiflorum). Particulars: amount of applied herbicide 320 g/ha. The procedure, abridged: (§4)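 In this soil treatment, the formulated compound reached the seeds only through the soil: seeds were buried about 1.5 cm deep in sterilized diluvial soil, then the diluted emulsion was sprayed over the surface. After three weeks at 25° C. to 30° C. in a greenhouse, effects were graded on criteria from an earlier test.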

The subject of test [2] is wild oat. The test can be described thus: Test Example 5: herbicidal effect by foliage application, plastic box (Table 20, symbol I). It is filed as in vivo, wild oat (Avena fatua). Conditions: foliage application, 320 g/ha, three weeks after application. The procedure, abridged: as §2
The test system of another test is redroot pigweed. Kind of test: Test Example 4: herbicidal effect by soil treatment (Table 19, symbol N). It is filed as in vivo, redroot pigweed (Amaranthus retroflexus). Particulars: amount of applied herbicide 320 g/ha. The procedure, abridged: as §4
Test [3] deals with barnyard grass. Kind of test: Test Example 5: herbicidal effect by foliage application, plastic box (Table 20, symbol H). It is filed as in vivo, barnyard grass (Echinochloa crus-galli). Particulars: foliage application, 320 g/ha, three weeks after application. An outline of the steps: as §2
In test [4] the test system is barnyard grass. The test can be described thus: Test Example 3: herbicidal effect by foliage application, Wagner pot (Table 18, symbol H). It is filed as in vivo, barnyard grass (Echinochloa crus-galli). Conditions: for herbicidal effect on H: barnyard grass: amount of applied herbicide 320 g/ha. The procedure, abridged:
as §3

Test [5] deals with blackgrass. Kind of test: Test Example 4: herbicidal effect by soil treatment (Table 19, symbol J). The test is classed as in vivo, blackgrass (Alopecurus myosuroides). Conditions: amount of applied herbicide 320 g/ha. An outline of the steps:
as §4

Another test relates to Japanese bulrush. The test can be described thus: Test Example 1: herbicidal activity, application before weed generation under submerged conditions (Table 16, symbol B). It is filed as in vivo, Japanese bulrush (Schoenoplectus juncoides). Conditions: amount of applied herbicide 320 g/ha. The procedure, abridged:
as §1

The subject of test [6] is wild oat. Kind of test: Test Example 4: herbicidal effect by soil treatment (Table 19, symbol I). The test is classed as in vivo, wild oat (Avena fatua). Conditions: amount of applied herbicide 320 g/ha. An outline of the steps: as §4
The test system of another test is lambsquarters. The test can be described thus: Test Example 5: herbicidal effect by foliage application, plastic box (Table 20, symbol O). Particulars: foliage application, 320 g/ha, three weeks after application. The test is classed as in vivo, lambsquarters (Chenopodium album). An outline of the steps:
as §2

A further test relates to windgrass. Kind of test: Test Example 5: herbicidal effect by foliage application, plastic box (Table 20, symbol L). The test is classed as in vivo, windgrass (Apera spica-venti). Conditions: foliage application, 320 g/ha, three weeks after application. The procedure, abridged:
as §2

In test [7] the test system is southern crabgrass. The test can be described thus: Test Example 4: herbicidal effect by soil treatment (Table 19, symbol F). The test is classed as in vivo, southern crabgrass (Digitaria ciliaris). Conditions: amount of applied herbicide 320 g/ha. The procedure, abridged: as §4
Test [8] deals with southern crabgrass. Kind of test: Test Example 5: herbicidal effect by foliage application, plastic box (Table 20, symbol F). It is filed as in vivo, southern crabgrass (Digitaria ciliaris). Particulars: foliage application, 320 g/ha, three weeks after application. An outline of the steps: as §2

On to `COc1ccccc1-c1sc2cc(F)ccc2c1-c1c(OC(=O)c2ccco2)c(C)nn(C)c1=O` [3-023], for which the “Herbicidal effect, C: oval-leafed pondweed” value (“Herbicidal effect, C” below) with oval-leafed pondweed was 4 (Herbicidal rate of 70% or more and less than 90%). In addition, the “J: blackgrass, herbicidal effect grade” value with blackgrass [1] is 5 (Herbicidal rate of 90% or more (almost completely withered)). In addition, in the test on Chinese sprangletop, the “herbicidal effect on D: Chinese sprangletop” value (“herbicidal effect on D” for short) was 3 (Herbicidal rate of 40% or more and less than 70%). Moreover, the “R: persian speedwell, herbicidal effect grade” value (“R: persian speedwell” for short) with persian speedwell was 3 (Herbicidal rate of 40% or more and less than 70%). Also, the “herbicidal effect, K: Italian ryegrass” value with Italian ryegrass is listed as 5 (Herbicidal rate of 90% or more (almost completely withered)). Also, the “I: wild oat, herbicidal effect grade” value in the test with wild oat [2] is 4 (Herbicidal rate of 70% or more and less than 90%). Also, in the test on redroot pigweed, the “herbicidal effect, N: redroot pigweed” value was 5 (Herbicidal rate of 90% or more (almost completely withered)). Moreover, the “H: barnyard grass, herbicidal effect grade” value in the test on barnyard grass [3] is reported as 5 (Herbicidal rate of 90% or more (almost completely withered)). Moreover, the “herbicidal effect on H: barnyard grass” value with barnyard grass [4] is 5 (Herbicidal rate of 90% or more (almost completely withered)). The “herbicidal effect, J: blackgrass” value in the test with blackgrass [5] was 4 (Herbicidal rate of 70% or more and less than 90%). Further, the “Herbicidal effect, B: Japanese bulrush” value in the test with Japanese bulrush is 3 (Herbicidal rate of 40% or more and less than 70%). In addition, the “herbicidal effect, I: wild oat” value with wild oat [6] is 0 (Herbicidal rate of 5% or less (almost no effect)). Further, in the test on lambsquarters, the “O: lambsquarters, herbicidal effect grade” value (“O: lambsquarters” for short) was 3 (Herbicidal rate of 40% or more and less than 70%). Moreover, the “L: windgrass, herbicidal effect grade” value with windgrass is 5 (Herbicidal rate of 90% or more (almost completely withered)). The “herbicidal effect, F: southern crabgrass” value in the test on southern crabgrass [7] is 3 (Herbicidal rate of 40% or more and less than 70%). Also, the “F: southern crabgrass, herbicidal effect grade” value in the test on southern crabgrass [8] was 3 (Herbicidal rate of 40% or more and less than 70%).

`COc1ccccc1-c1sc2cc(F)ccc2c1-c1c(OS(=O)(=O)c2ccc(C)cc2)c(C)nn(C)c1=O` [3-027]: the “Herbicidal effect, C” value in the test on oval-leafed pondweed is 5 (Herbicidal rate of 90% or more (almost completely withered)). Moreover, the “J: blackgrass, herbicidal effect grade” value with blackgrass [1] was 4 (Herbicidal rate of 70% or more and less than 90%); in the test on blackgrass [5] it was 3 (Herbicidal rate of 40% or more and less than 70%). In the test on Chinese sprangletop, the “herbicidal effect on D” value was 3 (Herbicidal rate of 40% or more and less than 70%). In addition, the “R: persian speedwell” value with persian speedwell is 0 (Herbicidal rate of 5% or less (almost no effect)). In addition, in the test on Italian ryegrass, the “K: Italian ryegrass, herbicidal effect grade” value is 0 (Herbicidal rate of 5% or less (almost no effect)). The “I: wild oat, herbicidal effect grade” value is 3 (Herbicidal rate of 40% or more and less than 70%) with wild oat [2]; 0 (Herbicidal rate of 5% or less (almost no effect)) with wild oat [6]. Also, in the test with redroot pigweed, the “N: redroot pigweed, herbicidal effect grade” value is 0 (Herbicidal rate of 5% or less (almost no effect)). The “H: barnyard grass, herbicidal effect grade” value in the test with barnyard grass [3] is recorded as 5 (Herbicidal rate of 90% or more (almost completely withered)). The “herbicidal effect on H: barnyard grass” value in the test with barnyard grass [4] was 5 (Herbicidal rate of 90% or more (almost completely withered)). For the same compound, the “Herbicidal effect, B: Japanese bulrush” value with Japanese bulrush is 3 (Herbicidal rate of 40% or more and less than 70%). Also, the “O: lambsquarters” value with lambsquarters is 3 (Herbicidal rate of 40% or more and less than 70%). Moreover, in the test on windgrass, the “L: windgrass, herbicidal effect grade” value is listed as 5 (Herbicidal rate of 90% or more (almost completely withered)). For the same compound, the “F: southern crabgrass, herbicidal effect grade” value with southern crabgrass [7] was 0 (Herbicidal rate of 5% or less (almost no effect)); in the test with southern crabgrass [8] it was 3 (Herbicidal rate of 40% or more and less than 70%).

For the compound `COc1ccccc1-c1sc2cc(F)ccc2c1-c1c(OS(=O)(=O)N(C)C)c(C)nn(C)c1=O` [3-028], the “Herbicidal effect, C” value with oval-leafed pondweed is 0 (Herbicidal rate of 5% or less (almost no effect)). Moreover, the “J: blackgrass, herbicidal effect grade” value in the test on blackgrass [1] was 4 (Herbicidal rate of 70% or more and less than 90%); with blackgrass [5], 0 (Herbicidal rate of 5% or less (almost no effect)). Also, the “herbicidal effect on D” value in the test with Chinese sprangletop was 3 (Herbicidal rate of 40% or more and less than 70%). Further, the “R: persian speedwell” value in the test on persian speedwell was 0 (Herbicidal rate of 5% or less (almost no effect)). In the test on Italian ryegrass, the “K: Italian ryegrass, herbicidal effect grade” value was 0 (Herbicidal rate of 5% or less (almost no effect)). Moreover, the “I: wild oat, herbicidal effect grade” value with wild oat [2] and in the test with wild oat [6] was 0 (Herbicidal rate of 5% or less (almost no effect)) throughout. Moreover, the “N: redroot pigweed, herbicidal effect grade” value with redroot pigweed is listed as 0 (Herbicidal rate of 5% or less (almost no effect)). Also, the “H: barnyard grass, herbicidal effect grade” value in the test on barnyard grass [3] is 2 (Herbicidal rate of 20% or more and less than 40%). Also, the “herbicidal effect on H: barnyard grass” value with barnyard grass [4] was 4 (Herbicidal rate of 70% or more and less than 90%). In addition, the “Herbicidal effect, B: Japanese bulrush” value in the test with Japanese bulrush is 0 (Herbicidal rate of 5% or less (almost no effect)). Besides, the “O: lambsquarters” value with lambsquarters is 2 (Herbicidal rate of 20% or more and less than 40%). For the same compound, the “L: windgrass, herbicidal effect grade” value in the test with windgrass was 5 (Herbicidal rate of 90% or more (almost completely withered)). Moreover, the “F: southern crabgrass, herbicidal effect grade” value was 0 (Herbicidal rate of 5% or less (almost no effect)) in the test on southern crabgrass [7]; 3 (Herbicidal rate of 40% or more and less than 70%) in the test on southern crabgrass [8].

Consider `CCCC(=O)Oc1c(C)nn(C)c(=O)c1-c1c(-c2ccc(Cl)cc2)sc2cc(Cl)ccc12` [3-034], for which the “Herbicidal effect, C” value with oval-leafed pondweed was 3 (Herbicidal rate of 40% or more and less than 70%). Further, the “J: blackgrass, herbicidal effect grade” value was 4 (Herbicidal rate of 70% or more and less than 90%) in the test with blackgrass [1]; 0 (Herbicidal rate of 5% or less (almost no effect)) in the test on blackgrass [5]. Moreover, the “herbicidal effect on Chinese sprangletop (D)” value in the test with Chinese sprangletop (320 g/ha) was 4 (Herbicidal rate of 70% or more and less than 90%). Moreover, the “R: persian speedwell” value in the test on persian speedwell was 5 (Herbicidal rate of 90% or more (almost completely withered)). In the test on Italian ryegrass, the “K: Italian ryegrass, herbicidal effect grade” value is 1 (Herbicidal rate of 5% or more and less than 20%). The “I: wild oat, herbicidal effect grade” value in the test with wild oat [2] is 3 (Herbicidal rate of 40% or more and less than 70%); in the test with wild oat [6], 0 (Herbicidal rate of 5% or less (almost no effect)). Further, the “N: redroot pigweed, herbicidal effect grade” value in the test with redroot pigweed is 3 (Herbicidal rate of 40% or more and less than 70%). Further, the “H: barnyard grass, herbicidal effect grade” value in the test with barnyard grass [3] was 3 (Herbicidal rate of 40% or more and less than 70%). Further, the “herbicidal effect on barnyard grass (H)” value in the test with barnyard grass [4] (320 g/ha) is 5 (Herbicidal rate of 90% or more (almost completely withered)). Moreover, the “Herbicidal effect, B: Japanese bulrush” value in the test on Japanese bulrush is 3 (Herbicidal rate of 40% or more and less than 70%). Moreover, the “O: lambsquarters” value in the test with lambsquarters is 4 (Herbicidal rate of 70% or more and less than 90%). Moreover, in the test on windgrass, the “L: windgrass, herbicidal effect grade” value is reported as 5 (Herbicidal rate of 90% or more (almost completely withered)). In addition, the “F: southern crabgrass, herbicidal effect grade” value in the test on southern crabgrass [7] was 0 (Herbicidal rate of 5% or less (almost no effect)); with southern crabgrass [8] it was 3 (Herbicidal rate of 40% or more and less than 70%).
